The values that follow are results of earlier work, collected in patent publication US9854827B2, “Sweetener” (Tate & Lyle Ingredients Americas LLC, priority 2013, dated 2018).

The conditions of this series: % of the sweetness of sucrose.

In the case of `O=C(CO)C(O)C(O)C(O)CO` (stereo not shown) [Allulose, allulose], the “sweetness relative to sucrose” value was “around 70%”.
